Patent US6034101A, “Dosage form and method for administering drug” (ALZA Corporation, priority 1997, dated 2000)

Columns and labels:
[1] = test system: patients; settings: cited from earlier work
[2] = test system: school children; test: Clinical study of Example 1: behavior, activity, mathematics scores and acute tolerance in school children (SKAMP, CLAM); format: in vivo, human
Method: (§1) The CLAM Test is a behavior rating that indicates social conformity or rebellion as developed by Conners, Lonez, and Milch and SKAMP is a rating that also measures behavior as developed by Swanson and reported in Psychopharmacological Bulletin, Vol. 21, pp. 887-890 (1985).
(§2) The effect measurements in this study were: (1) observer ratings on SKAMP scale (during classroom time) and (2) performance on the computerized mathematics test. Each child was tested on the mathematics test before the study began, and based on this pre-test during the study, a mathematics test appropriate for each child's ability was given. The morning and evening parent CLAM assessments were used to identify unusual behaviors. The evening parent CLAM was used to determine the presence of treatment effects in the evening hours, particularly treatment effects on the time the child fell asleep, and whether the child's sleep was interrupted. All of the children also wore an activity monitor (Actigraph) which records the movements of the child throughout the day. The activity (number of movements per minute) is recorded electronically and modeled as a function of the drug effect.
The immediate release tablet and the sustained-release dosage form were compared to a sustained-release dosage form that administered methylphenidate in an ascending profile. The sustained-release ascending profile corresponds to administering 4.2 mg at zero hour, 1.1 mg at 1.5 hours, 1.1 mg at 2 hours, 1.2 mg at 2.5 hours, 1.2 mg at 3.0 hours, 1.3 mg at 3.5 hours, 1.3 mg at 4 hours, 1.5 mg at 4.5 hours, 1.5 mg at 5 hours, 1.8 mg at 5.5 hours, 1.8 mg at 6 hours, and 2.0 mg at 6.5 hours, to produce the sustained-ascending release dotted line profile seen in FIG. 2.
The accompanying figures present the results of the above-described study. In FIGS. 3, 4, and 5, the line with a clear circle denotes a placebo, the dark circle an immediate release dosage form administered twice a day, the dark squares a sustained release nonascending dosage profile, and the clear squares the sustained ascending release profile provided by this invention. The SKAMP Score and CLAM Score were defined earlier in the specification, and the times are as indicated on the figures. FIG. 3 denotes the observed behavior, FIG. 4 denotes the inattention overactivity, and FIG. 5 denotes the combined attention results of the study.

[3] = test system: patients; test: Therapeutic response and acquired tolerance in patients (general statements); format: in vivo, human; settings: sustained-release dosage form with constant plasma concentration; applicant's finding
[4] = immediate release form; cited from earlier work
[5] = test system: children with attention deficient hyperactivity disorder; test: Clinical study of Example 2: behavior and combined attention, acquired tolerance in children with attention deficient hyperactivity disorder; format: in vivo, human; settings: total 36 mg
Method: as §1, §2
The results of a clinical study that comprises administering methylphenidate according to two distinct delivery programs are reported in this example. […]

[6] = sustained-nonascending dose, 20 mg, vs placebo

Compound: COC(=O)C(c1ccccc1)C1CCCCN1 (stereo not shown) [methylphenidate]
- tolerance ([1]; 5 mg dose twice a day): acquires tolerance
- time to development of tolerance ([1]; after administration): within hours
- acute tolerance ([1]; prior art sustained-release nonascending dosage form): often develops an acute tolerance
- therapeutic effect / tolerance ([2]; controlled-sustained ascending profile): desired therapeutic effect without tolerance
- acute tolerance ([2]; sustained-nonascending dose, 20 mg): development of acute tolerance
- activity [2, 6]: decrease in activity
- inappropriate behavior [2, 6]: lessening of inappropriate behavior
- mathematical scores [2, 6]: higher mathematical scores
- efficacy against acquired tolerance [3]: lacks efficacy particularly against acquired tolerance
- half-life [4]: short half-life
- onset [4]: rapid onset
- behavior, acquired tolerance ([5]; sustained-ascending program, FIG. 7): absence of acquired tolerance
- combined attention, acquired tolerance ([5]; sustained-ascending release, FIG. 8): essentially free of developed tolerance
